Entries after “also recorded” stand apart in the source; their conditions may differ.
How the values were obtained:
[1] = target: kappa opioid receptor (Homo sapiens, UniProt P41145); experiment: Opioid receptor binding at 10 μM; details: at a concentration of 10 μM
[2] = system: C57BL/6J mice; experiment: Locomotor activity, basal and oxycodone-induced, open-field chambers
[3] = target: delta opioid receptor (Homo sapiens, UniProt P41143); experiment: Opioid receptor binding at 10 μM; details: at a concentration of 10 μM
Sequence of delta opioid receptor (P41143 whole entry): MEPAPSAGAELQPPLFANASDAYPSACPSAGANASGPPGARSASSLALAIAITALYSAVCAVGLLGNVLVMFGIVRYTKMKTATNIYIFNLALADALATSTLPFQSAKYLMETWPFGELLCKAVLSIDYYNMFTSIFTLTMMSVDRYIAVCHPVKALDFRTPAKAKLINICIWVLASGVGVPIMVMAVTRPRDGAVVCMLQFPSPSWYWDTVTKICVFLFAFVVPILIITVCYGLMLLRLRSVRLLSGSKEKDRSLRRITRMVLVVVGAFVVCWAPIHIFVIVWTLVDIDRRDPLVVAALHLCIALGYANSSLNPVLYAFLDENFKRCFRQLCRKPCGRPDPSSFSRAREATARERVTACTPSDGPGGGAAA

[4] = system: Long-Evans rats; experiment: Oxycodone-induced conditioned place preference; assay type: in vivo, rat
[5] = target: mu opioid receptor (Homo sapiens, UniProt P35372); experiment: Opioid receptor binding at 10 μM; details: at a concentration of 10 μM
Sequence of mu opioid receptor (P35372 whole entry): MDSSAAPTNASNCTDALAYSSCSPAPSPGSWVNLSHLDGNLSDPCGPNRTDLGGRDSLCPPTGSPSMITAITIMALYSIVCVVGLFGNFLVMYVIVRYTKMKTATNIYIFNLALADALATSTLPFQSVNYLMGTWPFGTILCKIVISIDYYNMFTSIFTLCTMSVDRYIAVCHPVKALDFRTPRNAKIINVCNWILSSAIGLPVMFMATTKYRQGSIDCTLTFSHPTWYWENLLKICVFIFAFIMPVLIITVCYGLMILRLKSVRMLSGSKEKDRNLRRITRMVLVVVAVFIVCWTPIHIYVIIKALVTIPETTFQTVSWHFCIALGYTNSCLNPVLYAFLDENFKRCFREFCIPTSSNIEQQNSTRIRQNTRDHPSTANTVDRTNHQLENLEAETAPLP

[6] = target: T1, 5HT1A (Homo sapiens, UniProt P08908); experiment: 5HT1A [35S]GTPγS binding functional assay; assay type: biochemical
T1 sequence (P08908 1-422): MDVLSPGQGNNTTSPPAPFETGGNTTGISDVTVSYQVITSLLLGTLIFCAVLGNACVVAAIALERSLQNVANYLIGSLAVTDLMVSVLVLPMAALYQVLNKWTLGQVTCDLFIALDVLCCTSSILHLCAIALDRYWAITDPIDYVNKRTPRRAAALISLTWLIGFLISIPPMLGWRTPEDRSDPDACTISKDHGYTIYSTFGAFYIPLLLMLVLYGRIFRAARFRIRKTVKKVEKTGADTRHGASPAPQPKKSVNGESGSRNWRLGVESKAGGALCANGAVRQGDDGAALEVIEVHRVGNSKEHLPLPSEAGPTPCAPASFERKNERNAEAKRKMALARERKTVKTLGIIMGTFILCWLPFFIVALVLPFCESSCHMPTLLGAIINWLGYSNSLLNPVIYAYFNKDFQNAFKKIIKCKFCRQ

[7] = target: D2R; details: read-out: D2R Ki; eticlopride; cited from earlier work
[8] = system: dogs; details: cited from earlier work
[9] = cited from earlier work
[10] = target: T2, human D4.4R (Homo sapiens, UniProt P21917); assay type: binding; details: read-out: D4.4R Ki ± S.E.M.; full-length analogues, Table 2; HEK 293
T2 sequence (P21917 1-419): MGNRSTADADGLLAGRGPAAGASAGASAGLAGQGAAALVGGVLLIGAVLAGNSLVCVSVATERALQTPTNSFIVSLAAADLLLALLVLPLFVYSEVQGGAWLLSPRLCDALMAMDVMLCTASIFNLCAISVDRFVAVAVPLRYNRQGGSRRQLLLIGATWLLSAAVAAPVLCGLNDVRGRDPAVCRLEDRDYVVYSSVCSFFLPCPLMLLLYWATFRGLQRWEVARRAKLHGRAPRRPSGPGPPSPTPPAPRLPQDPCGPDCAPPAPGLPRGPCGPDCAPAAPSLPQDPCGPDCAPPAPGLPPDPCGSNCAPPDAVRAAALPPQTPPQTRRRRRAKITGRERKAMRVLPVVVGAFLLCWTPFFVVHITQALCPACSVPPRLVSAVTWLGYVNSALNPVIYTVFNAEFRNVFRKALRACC

[11] = target: human D3R (Homo sapiens, UniProt P35462); assay type: binding; details: Table 2
Sequence of human D3R (P35462 whole entry): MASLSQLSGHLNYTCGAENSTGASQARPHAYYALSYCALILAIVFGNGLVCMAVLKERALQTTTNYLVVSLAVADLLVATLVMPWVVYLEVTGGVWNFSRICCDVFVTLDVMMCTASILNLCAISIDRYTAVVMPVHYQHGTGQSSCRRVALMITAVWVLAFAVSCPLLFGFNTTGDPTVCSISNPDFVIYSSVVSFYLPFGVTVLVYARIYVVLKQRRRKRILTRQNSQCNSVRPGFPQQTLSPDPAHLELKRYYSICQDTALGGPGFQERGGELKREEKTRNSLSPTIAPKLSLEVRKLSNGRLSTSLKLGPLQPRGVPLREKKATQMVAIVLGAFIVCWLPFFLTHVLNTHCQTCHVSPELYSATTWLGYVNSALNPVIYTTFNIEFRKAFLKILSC

[12] = target: human D2LR (Homo sapiens, UniProt P14416); assay type: binding; details: read-out: D2LR Ki ± S.E.M.; full-length analogues, Table 2; HEK 293
Sequence of human D2LR (P14416 whole entry): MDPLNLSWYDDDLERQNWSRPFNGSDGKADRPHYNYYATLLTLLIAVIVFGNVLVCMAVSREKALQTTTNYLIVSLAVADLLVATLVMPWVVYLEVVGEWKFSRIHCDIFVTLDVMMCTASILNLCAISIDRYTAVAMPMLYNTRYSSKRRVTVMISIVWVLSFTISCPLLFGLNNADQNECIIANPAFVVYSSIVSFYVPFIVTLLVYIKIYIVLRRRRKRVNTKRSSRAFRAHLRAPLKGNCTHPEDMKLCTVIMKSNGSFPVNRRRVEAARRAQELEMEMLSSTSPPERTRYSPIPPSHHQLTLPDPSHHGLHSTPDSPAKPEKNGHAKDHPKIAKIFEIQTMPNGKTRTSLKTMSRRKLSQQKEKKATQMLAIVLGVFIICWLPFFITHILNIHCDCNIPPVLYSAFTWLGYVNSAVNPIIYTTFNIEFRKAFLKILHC

Sequence of kappa opioid receptor (P41145 whole entry): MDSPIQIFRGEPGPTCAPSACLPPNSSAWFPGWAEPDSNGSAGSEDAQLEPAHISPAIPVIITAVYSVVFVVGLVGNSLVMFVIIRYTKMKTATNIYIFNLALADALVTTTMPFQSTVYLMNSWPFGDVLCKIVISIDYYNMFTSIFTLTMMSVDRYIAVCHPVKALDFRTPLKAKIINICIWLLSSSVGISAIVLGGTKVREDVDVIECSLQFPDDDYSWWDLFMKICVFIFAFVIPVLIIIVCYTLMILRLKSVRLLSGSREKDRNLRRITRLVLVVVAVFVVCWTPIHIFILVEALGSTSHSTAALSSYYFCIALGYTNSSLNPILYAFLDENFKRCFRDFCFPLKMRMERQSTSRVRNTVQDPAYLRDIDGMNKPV

CCc1cc(Cl)c(OC)c(N2CCN(CC(O)CCNC(=O)c3cc4ccccc4[nH]3)CC2)c1 (stereo not shown) [Compound 19, N-(4-(4-(3-Chloro-5-ethyl-2-methoxyphenyl)piperazin-1-yl)-3-hydroxybutyl)-1H-indole-2-carboxamide]
binding to kappa opioid receptor [1]: does not bind
effect on acute oxycodone-induced hyperactivity ([2]; mice, 5, 15 mg/kg i.p. 15 min before oxycodone 4 mg/kg, day 2): attenuated; also recorded: dose-dependently inhibited
effect on basal locomotor activity ([2]; mice, 5, 15 mg/kg i.p. alone, day 1): no effect on locomotion
effect on acquisition of repeated oxycodone-induced locomotor sensitization ([2]; mice, 5, 15 mg/kg i.p. daily before oxycodone 4 mg/kg, day 2-day 6): dose-dependently blocked
effect on expression of oxycodone prime-induced locomotor sensitization after 2 days of withdrawal ([2]; mice, day 9, oxycodone 4 mg/kg challenge without pretreatment): blocked; also recorded: long-lasting inhibition
binding to delta opioid receptor [3]: does not bind
effect on oxycodone-induced CPP at 15 mg/kg ([4]; rats, 15 mg/kg i.p., p<0.05 compared to (Vehicle + oxycodone) group): significant reduction
CPP produced by compound alone ([4]; rats, 15 mg/kg i.p., paired with saline, 15 mg/kg): did not produce CPP; also recorded: did not produce significant place preference
effect on oxycodone-induced CPP ([4]; rats, 5, 15 mg/kg i.p. 15 min before each oxycodone injection (3 mg/kg i.p.)): dose-dependently attenuated; also recorded: dose-dependently blocked
binding to mu opioid receptor [5]: does not bind

CCc1cccc(N2CCN(CCCCNC(=O)c3cc4ccccc4[nH]3)CC2)c1Cl [Compound 22, N-(4-(4-(2-Chloro-3-ethylphenyl)piperazin-1-yl)butyl)-1H-indole-2-carboxamide]
functional profile at 5HT1A [6]: functional agonists

CCc1cccc(N2CCN(CCCCNC(=O)c3cc4ccccc4o3)CC2)c1Cl [Compound 24, N-(4-(4-(2-Chloro-3-ethylphenyl)piperazin-1-yl)butyl)benzofuran-2-carboxamide]
functional profile at 5HT1A [6]: functional agonists

CCc1cccc(N2CCN(CC(O)CCNC(=O)c3cc4ccccc4o3)CC2)c1Cl (stereo not shown) [Compound 25, N-(4-(4-(2-Chloro-3-ethylphenyl)piperazin-1-yl)-3-hydroxybutyl)benzofuran-2-carboxamide]
functional profile at 5HT1A [6]: functional agonists

CCc1cc(Cl)c(OC)c(C(=O)NC[C@@H]2CCCN2CC)c1O [Eticlopride]
Ki [7]: 0.086 nM

Cc1ncoc1-c1nnc(SCCCN2C[C@@H]3C[C@]3(c3ccc(C(F)(F)F)cc3F)C2)n1C [GSK598,809]
blood pressure effect in the presence of cocaine [8]: significant hypertension

O=C(NCC[C@@H](O)CN1CCN(c2cccc(Cl)c2Cl)CC1)c1cc2ccccc2[nH]1 [R-PG648]
metabolic stability [9]: metabolic instability

COc1ccc2c3c1O[C@H]1C(=O)CC[C@@]4(O)[C@@H](C2)N(C)CC[C@]314 [oxycodone, reference compound]
effect of oxycodone on locomotor activity ([2]; mice, oxycodone 4 mg/kg i.p.): significant increases in locomotor activity
CPP produced by oxycodone ([4]; rats, oxycodone 3 mg/kg i.p. versus saline conditioning): produced significant CPP

N-(4-(4-(2-Chloro-3-ethylphenyl)piperazin-1-yl)butyl)-6-methylimidazo[2,1-b]thiazole-5-carboxamide [Compound 28]
Ki [10]: 143 ± 3.18 nM
D2R/D3R ([11]; binding selectivity, ratio of Ki values (fold)): 5
Ki ([11]; read-out: D3R Ki ± S.E.M., full-length analogues, HEK 293): 0.941 ± 0.13 nM
Ki [12]: 4.65 ± 1.24 nM
